The results in this text go back to PubChem BioAssay (NCI).

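In this assay, cells in 96-well plates receive the compound at five concentrations for 48 hours. Endpoints are linearly interpolated between the surrounding concentrations. The concentration for full growth arrest is given as TGI.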

Some test systems named below: 786-0 renal; COLO 205 colon; EKVX NSCLC; K-562 leukemia; MDA-MB-435; MDA-N; SK-MEL-2 melanoma; SR leukemia; T-47D breast; SK-MEL-5 melanoma.
Common to all, as to assay: NCI anticancer screen, dose series, 48 h

Regarding `Cc1nn(C)c2nc3ccc(Cl)cc3c(-c3ccccc3)c12`, the TGI in the assay with 786-0 renal, in the assay with COLO 205 colon, in the assay on EKVX NSCLC, with K-562 leukemia, in the assay with MDA-MB-435 and in the assay with MDA-N was over 100 µM each time. Besides, the TGI in the assay on SK-MEL-2 melanoma, in the assay on SR leukemia and in the assay on T-47D breast was over 100 µM throughout.

As to `Cc1ccnc(NC(=S)Nc2cccc(Cl)c2)c1`, the TGI in the assay with 786-0 renal, in the assay with COLO 205 colon, with EKVX NSCLC, in the assay with K-562 leukemia, in the assay on MDA-MB-435 and in the assay with SK-MEL-2 melanoma was over 100 µM in each case. The TGI with SK-MEL-5 melanoma, in the assay on SR leukemia and in the assay on T-47D breast was over 100 µM each time.

Regarding `COP(=O)(OC)C(NC=O)P(=O)(OC)OC`, the TGI with 786-0 renal, in the assay on COLO 205 colon, with EKVX NSCLC, in the assay with K-562 leukemia, with MDA-MB-435 and in the assay on MDA-N was over 100 µM each time. Besides, the TGI in the assay with SK-MEL-5 melanoma, with SR leukemia and in the assay on T-47D breast was over 100 µM each time.

Regarding `CC(C)=Nn1cnc(C(=N)C#N)c1N`, the TGI in the assay with 786-0 renal, in the assay on COLO 205 colon, in the assay with EKVX NSCLC, in the assay on K-562 leukemia, in the assay with MDA-N and in the assay on SK-MEL-2 melanoma was over 100 µM each time. The TGI with SR leukemia was over 100 µM.

In the case of `O=c1[nH]cnc2sc(=S)c3c(c12)CCC3`, the TGI with 786-0 renal is 33.3 µM; in the assay on COLO 205 colon it was 62.7 µM; in the assay on EKVX NSCLC, over 100 µM; with K-562 leukemia, 29.2 µM; in the assay on MDA-MB-435 it was over 100 µM; in the assay on SK-MEL-2 melanoma, over 100 µM. Besides, the figures for the TGI with SK-MEL-5 melanoma, with SR leukemia and in the assay on T-47D breast were 42.1 µM, 35.5 µM and over 100 µM, respectively.

Turning to `CC1C2CC(C/C2=N/O)C1(C)C` (stereo not given), the TGI in the assay on 786-0 renal, with COLO 205 colon, in the assay with EKVX NSCLC, with K-562 leukemia, in the assay on MDA-MB-435 and in the assay on MDA-N was over 100 µM in each case. For the same compound, the TGI with SK-MEL-5 melanoma, with SR leukemia and in the assay on T-47D breast was over 100 µM each time.

For the compound `CCC(=O)NC(OCC1(CC)COC1)(C(F)(F)F)C(F)(F)F`, the TGI with EKVX NSCLC, in the assay on K-562 leukemia, with MDA-MB-435, in the assay with MDA-N, with SK-MEL-2 melanoma and with SR leukemia was over 100 µM throughout. Besides, the TGI in the assay on T-47D breast was over 100 µM.

As to `Cc1ccc(SC[C@@]2(C(F)F)NC(=O)NC2=O)cc1`, the TGI in the assay on 786-0 renal, in the assay on COLO 205 colon, with EKVX NSCLC, in the assay on K-562 leukemia, in the assay on MDA-MB-435 and in the assay on SK-MEL-2 melanoma was over 100 µM each time. Besides, the TGI in the assay with SK-MEL-5 melanoma, in the assay on SR leukemia and in the assay with T-47D breast was over 100 µM each time.

For the compound `COc1cc(OC)cc(-n2c(N)c(-c3nc4ccccc4n3C)c3ccc([N+](=O)[O-])cc3c2=O)c1`, the TGI in the assay with 786-0 renal, in the assay on COLO 205 colon, with K-562 leukemia, in the assay with MDA-MB-435, in the assay on MDA-N and in the assay with SK-MEL-2 melanoma was over 100 µM each time. Moreover, the TGI in the assay with SK-MEL-5 melanoma and in the assay on T-47D breast was over 100 µM throughout.

With `COc1cc2c(cc1C)NC(=O)/C2=C\c1ccncc1`, the TGI in the assay with 786-0 renal is 18.8 µM; with COLO 205 colon, over 100 µM; with EKVX NSCLC it was 25.8 µM; in the assay on K-562 leukemia, over 100 µM; with MDA-MB-435 it was 20 µM; with SK-MEL-2 melanoma it was 10.1 µM. In addition, the TGI in the assay with SK-MEL-5 melanoma was 8.47 µM; in the assay on SR leukemia, 8.04 µM; in the assay on T-47D breast, 16.8 µM.

On to `COc1cc(OC)c2c(O)c(S(=O)(=O)c3ccc(C)cc3)c(=O)oc2c1`, for which the TGI in the assay with 786-0 renal, in the assay with COLO 205 colon, in the assay with EKVX NSCLC, in the assay with K-562 leukemia, in the assay with MDA-MB-435 and with SK-MEL-2 melanoma was over 100 µM throughout. For the same compound, the TGI in the assay on SK-MEL-5 melanoma, in the assay on SR leukemia and in the assay on T-47D breast was over 100 µM each time.

Regarding `O=c1[nH]c2cc3cccnc3c(Cl)c2nc1CBr`, the TGI in the assay with 786-0 renal was 25.2 µM; in the assay with COLO 205 colon, 26.8 µM; in the assay with EKVX NSCLC, 52.1 µM; with K-562 leukemia, over 100 µM; in the assay with MDA-MB-435, 34.8 µM; in the assay on MDA-N it was 34.9 µM. Moreover, the TGI came out at 35.6 µM in the assay with SK-MEL-5 melanoma, 73.3 µM in the assay with SR leukemia and 28.3 µM with T-47D breast.

For the compound `Oc1nc(N/N=C/c2ccccc2)[nH]c1/C=C1\C=Nc2ccccc21`, the TGI in the assay on 786-0 renal, with COLO 205 colon, in the assay on EKVX NSCLC, with K-562 leukemia, with MDA-MB-435 and in the assay with MDA-N was over 100 µM throughout. Also, the TGI in the assay with SK-MEL-2 melanoma, in the assay with SK-MEL-5 melanoma and in the assay on T-47D breast was over 100 µM each time.

For `Cc1ccc(N=C2SC(c3ccc(C)cc3)(c3ccc(C)cc3)c3ccccc32)cc1`, the TGI with 786-0 renal, with COLO 205 colon, in the assay on EKVX NSCLC, with K-562 leukemia, in the assay on MDA-MB-435 and in the assay with MDA-N was over 100 µM throughout. For the same compound, the TGI with SK-MEL-2 melanoma, in the assay with SK-MEL-5 melanoma and in the assay with T-47D breast was over 100 µM each time.

In the case of `CCOC(=O)c1c(NCc2ccccc2)n(-c2ccccc2)c(=S)n(-c2ccccc2)c1=O`, the TGI in the assay on 786-0 renal, in the assay with COLO 205 colon, in the assay with K-562 leukemia, with MDA-MB-435, in the assay on MDA-N and in the assay on SK-MEL-2 melanoma was over 100 µM in each case. The TGI in the assay with SK-MEL-5 melanoma, in the assay on SR leukemia and with T-47D breast was over 100 µM each time.
